Experimental data taken from patent publication US4479951A, “1.4;3.6-Dianhydrohexitol nitrates substituted by purine bases, processes for their preparation and pharmaceutical compositions” (Dr. Willmar Schwabe GmbH & Co., priority 1980, dated 1984).

System: mongrel dogs
Test: circulatory-pharmacological effectiveness on the narcotised dog, intravenous administration
Type: in vivo

## Nc1ncnc2c1ncn2[C@H]1CO[C@H]2[C@@H]1OC[C@@H]2O[N+](=O)[O-] [1c/2c, 5-(9-Adenyl)-5-desoxy-1.4;3.6-dianhydro-L-iditol 2-nitrate]
2 min after i.v. 1 mg/kg
  APdiast: diastolic aorta pressure: 74.1 mm.Hg
  APsyst: systolic aorta pressure: 115.3 mm.Hg
  BFFem: blood flow in the A. femoralis, referred to 20 kg. body weight: 35.3 mL/min
  HF: heart frequency: 158.7 min⁻¹
  HLL: heart capacity left, referred to 20 kg. body weight: 0.75 W
  HLR: heart capacity right, referred to 20 kg. body weight: 115.8 mW
  HZV: heart minute volume, referred to 20 kg. body weight: 3.91 L/min
  LVEDP: end diastolic pressure in the left ventricle: 2.62 mm.Hg
  PAP: average pressure in the A. pulmonalis: 15.6 ±2.1 mm.Hg
  PRA: pressure in the right atrium: 2.06 mm.Hg
  SV: beat volume, referred to 20 kg. body weight: 25.6 mL
  WAP: pulmonalis resistance, referred to 20 kg. body weight: 0.45 U
  WFem: femoralis resistance, referred to 20 kg. body weight: 0.35 KU
  WTP: total peripheral resistance, referred to 20 kg. body weight: 2.93 U
  dp/dt: rate of pressure increase in the left ventricle: 2606.2 mm.Hg/sec.
5 min after i.v. 1 mg/kg
  APdiast: diastolic aorta pressure: 82.5 mm.Hg
  APsyst: systolic aorta pressure: 120.9 mm.Hg
  BFFem: blood flow in the A. femoralis, referred to 20 kg. body weight: 36.6 mL/min
  HF: heart frequency: 148.7 min⁻¹
  HLL: heart capacity left, referred to 20 kg. body weight: 0.74 W
  HLR: heart capacity right, referred to 20 kg. body weight: 87.6 mW
  HZV: heart minute volume, referred to 20 kg. body weight: 3.61 L/min
  LVEDP: end diastolic pressure in the left ventricle: 2.91 mm.Hg
  PAP: average pressure in the A. pulmonalis: 13.7 ±1.4 mm.Hg
  PRA: pressure in the right atrium: 2.81 mm.Hg
  SV: beat volume, referred to 20 kg. body weight: 26.0 mL
  WAP: pulmonalis resistance, referred to 20 kg. body weight: 0.40 U
  WFem: femoralis resistance, referred to 20 kg. body weight: 0.36 KU
  WTP: total peripheral resistance, referred to 20 kg. body weight: 3.42 U
  dp/dt: rate of pressure increase in the left ventricle: 2343.7 mm.Hg/sec.
7 min after i.v. 1 mg/kg
  APdiast: diastolic aorta pressure: 83.4 mm.Hg
  APsyst: systolic aorta pressure: 121.9 mm.Hg
  BFFem: blood flow in the A. femoralis, referred to 20 kg. body weight: 38.6 mL/min
  HF: heart frequency: 146.7 min⁻¹
  HLL: heart capacity left, referred to 20 kg. body weight: 0.72 W
  HLR: heart capacity right, referred to 20 kg. body weight: 89.3 mW
  HZV: heart minute volume, referred to 20 kg. body weight: 3.51 L/min
  LVEDP: end diastolic pressure in the left ventricle: 2.91 mm.Hg
  PAP: average pressure in the A. pulmonalis: 14.1 ±1.6 mm.Hg
  PRA: pressure in the right atrium: 2.81 mm.Hg
  SV: beat volume, referred to 20 kg. body weight: 25.6 mL
  WAP: pulmonalis resistance, referred to 20 kg. body weight: 0.42 U
  WFem: femoralis resistance, referred to 20 kg. body weight: 0.34 KU
  WTP: total peripheral resistance, referred to 20 kg. body weight: 3.59 U
  dp/dt: rate of pressure increase in the left ventricle: 2362.5 mm.Hg/sec.
10 min after i.v. 1 mg/kg
  APdiast: diastolic aorta pressure: 83.4 mm.Hg
  APsyst: systolic aorta pressure: 120.9 mm.Hg
  BFFem: blood flow in the A. femoralis, referred to 20 kg. body weight: 39.5 mL/min
  HF: heart frequency: 141.2 min⁻¹
  HLL: heart capacity left, referred to 20 kg. body weight: 0.72 W
  HLR: heart capacity right, referred to 20 kg. body weight: 88.8 mW
  HZV: heart minute volume, referred to 20 kg. body weight: 3.5 L/min
  LVEDP: end diastolic pressure in the left ventricle: 3.20 mm.Hg
  PAP: average pressure in the A. pulmonalis: 14.2 ±1.6 mm.Hg
  PRA: pressure in the right atrium: 2.95 mm.Hg
  SV: beat volume, referred to 20 kg. body weight: 26.4 mL
  WAP: pulmonalis resistance, referred to 20 kg. body weight: 0.42 U
  WFem: femoralis resistance, referred to 20 kg. body weight: 0.33 KU
  WTP: total peripheral resistance, referred to 20 kg. body weight: 3.57 U
  dp/dt: rate of pressure increase in the left ventricle: 2268.7 mm.Hg/sec.
